Measured values: US20080009418A1, “Selective Inhibitors” (Alchemia LTD., priority 2004, published 2008)

Legend:
[1] = biological target: T1, Human neuropeptide Y (NPY-Y1) (Homo sapiens, UniProt P25929); test: Radioligand binding, human neuropeptide Y NPY-Y1 membranes, FlashPlate, [125I]-PYY; settings: compound at 10 μM
T1 construct: purchased Perkin Elmer Biosignal
T1 sequence (P25929 1-384): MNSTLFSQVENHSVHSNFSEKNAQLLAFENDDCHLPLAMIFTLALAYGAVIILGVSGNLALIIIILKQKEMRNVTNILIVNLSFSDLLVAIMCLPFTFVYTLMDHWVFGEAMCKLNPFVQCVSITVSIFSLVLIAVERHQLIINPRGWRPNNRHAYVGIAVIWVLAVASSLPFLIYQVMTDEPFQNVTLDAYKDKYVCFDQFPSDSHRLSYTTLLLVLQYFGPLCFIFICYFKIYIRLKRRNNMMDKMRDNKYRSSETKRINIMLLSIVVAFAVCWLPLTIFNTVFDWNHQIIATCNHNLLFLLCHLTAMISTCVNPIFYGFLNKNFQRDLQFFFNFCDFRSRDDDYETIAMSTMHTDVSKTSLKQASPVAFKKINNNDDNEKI
Procedure, shortened: (§1)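 Cloned human receptor membranes were coated onto FlashPlate wells and incubated with radioligand and compound (added from a 0.5 mM DMSO daughter plate) for 1 hour at room temperature in the dark. Scintillation counting gave percent inhibition, with DMSO defining total and reference ligand defining non-specific binding.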

Human melanocortin (MC5) = biological target: T2, Human melanocortin (MC5) (Homo sapiens, UniProt P33032); test: Radioligand binding, human melanocortin MC5 membranes, FlashPlate, [125I]-NDP-αMSH; settings: compound at 10 μM; for A5 radioligand binding inhibition: human melanocortin MC5 membranes
T2 construct: purchased Perkin Elmer Biosignal
Procedure, shortened: as §1

[2] = biological target: T3, Human melanin-concentrating hormone (MCH1) (Homo sapiens, UniProt Q99705); test: Radioligand binding, human melanin-concentrating hormone MCH1 membranes, FlashPlate, [125I]-S36057; settings: compound at 10 μM; for A6 radioligand binding inhibition: human MCH1 membranes; for A6 radioligand binding, percentage inhibition: [125I]-S36057
T3 construct: purchased Perkin Elmer Biosignal
Procedure, shortened: as §1

Human δ-opioid (DOP) = biological target: T4, Human δ-opioid (DOP) (Homo sapiens, UniProt P41143); test: Radioligand binding, human δ-opioid (DOP) membranes, FlashPlate, [3H]-Bremazocine; settings: compound at 10 μM; for A1 radioligand binding inhibition: human δ-opioid (DOP) membranes
T4 construct: purchased Perkin Elmer Biosignal
Procedure, shortened: as §1

Human Melanocortin (MC3) = biological target: T5, Human Melanocortin (MC3) (Homo sapiens, UniProt P41968); test: Radioligand binding, human melanocortin MC3 membranes, FlashPlate, [125I]-NDP-αMSH; settings: compound at 10 μM; for A3 radioligand binding inhibition: human melanocortin MC3 membranes
T5 construct: purchased Perkin Elmer Biosignal
Procedure, shortened: as §1

Human Melanocortin (MC4) = biological target: T6, Human Melanocortin (MC4) (Homo sapiens, UniProt P32245); test: Radioligand binding, human melanocortin MC4 membranes, FlashPlate, [125I]-NDP-αMSH; settings: compound at 10 μM; for A4 radioligand binding inhibition: human melanocortin MC4 membranes
T6 construct: purchased Perkin Elmer Biosignal
Procedure, shortened: as §1

Human opioid (ORL1) = biological target: T7, Human opioid (ORL1) (Homo sapiens, UniProt P41146); test: Radioligand binding, human opioid ORL1 membranes, FlashPlate, [125I]-Nociceptin; settings: compound at 10 μM
T7 construct: purchased Perkin Elmer Biosignal
Procedure, shortened: as §1

Human neurokinin (NK1) = biological target: T8, Human neurokinin (NK1) (Homo sapiens, UniProt P25103); test: Radioligand binding, human neurokinin NK1 membranes, filtration, [125I]-Substance P; settings: compound at 10 μM; for A8 radioligand binding inhibition: human neurokinin NK1 membranes
T8 construct: purchased Perkin Elmer Biosignal
Procedure, shortened: (§2)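 Percent inhibition of radioligand binding measured on recombinant human membranes: NK1 with [125I]-Substance P, KOP with [3H]-Diprenorphine. Incubation 1 h at room temperature, then harvest onto 0.3% PEI-soaked filters, cold Tris-HCl pH 7.4 washes and scintillation counting; non-specific binding from reference ligand wells.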

Human μ-opioid (MOP) = biological target: T9, Human μ-opioid (MOP) (Homo sapiens, UniProt P35372); test: Radioligand binding, human μ-opioid (MOP) membranes, FlashPlate, [3H]-Naloxone; settings: compound at 10 μM; for A7 radioligand binding inhibition: human μ-opioid (MOP) membranes
T9 construct: purchased Perkin Elmer Biosignal
Procedure, shortened: as §1

Human κ-Opioid (KOP) = biological target: T10, Human κ-Opioid (KOP) (Homo sapiens, UniProt P41145); test: Radioligand binding, human κ-opioid (KOP) membranes, filtration, [3H]-Diprenorphine; settings: compound at 10 μM; for A2 radioligand binding inhibition: human κ-opioid (KOP) membranes
T10 construct: purchased Perkin Elmer Biosignal
Procedure, shortened: as §2

Mouse urotensin (mUR2) = biological target: T11, Mouse urotensin (mUR2) (Mus musculus, UniProt Q8VIH9); test: Radioligand binding, mouse urotensin mUR2 membranes, FlashPlate, [125I]-Urotensin II; settings: compound at 10 μM; for A11 radioligand binding inhibition: mouse urotensin mUR2 membranes
T11 construct: purchased Perkin Elmer Biosignal
T11 sequence (Q8VIH9 1-385): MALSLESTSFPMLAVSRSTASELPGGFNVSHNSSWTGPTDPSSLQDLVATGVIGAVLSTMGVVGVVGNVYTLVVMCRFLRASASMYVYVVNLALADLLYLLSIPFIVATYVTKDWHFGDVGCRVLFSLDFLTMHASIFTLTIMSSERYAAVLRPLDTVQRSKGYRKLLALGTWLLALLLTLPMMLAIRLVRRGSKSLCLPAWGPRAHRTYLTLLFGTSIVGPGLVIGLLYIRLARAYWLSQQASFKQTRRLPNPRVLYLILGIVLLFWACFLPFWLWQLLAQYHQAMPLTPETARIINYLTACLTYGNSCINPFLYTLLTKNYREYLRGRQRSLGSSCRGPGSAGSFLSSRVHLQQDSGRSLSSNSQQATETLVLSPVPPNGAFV
Procedure, shortened: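 Cloned mouse urotensin (mUR2) receptor membranes from Perkin Elmer Biosignal were immobilized in FlashPlate microplates using a proprietary coating. Each well got 19.5 μl buffer, then 0.5 μl of DMSO, reference ligand, or compound. Adding 5 μl of [125I]-Urotensin II, diluted to 5× final concentration in binding buffer, started binding. Plates were sealed with TopSeal-A and incubated 1 hour at room temperature in the dark. Wells were counted for 30 seconds each on a TopCount after a 60-second delay, and percentage inhibition was calculated.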

T4 sequence (P41143 whole entry): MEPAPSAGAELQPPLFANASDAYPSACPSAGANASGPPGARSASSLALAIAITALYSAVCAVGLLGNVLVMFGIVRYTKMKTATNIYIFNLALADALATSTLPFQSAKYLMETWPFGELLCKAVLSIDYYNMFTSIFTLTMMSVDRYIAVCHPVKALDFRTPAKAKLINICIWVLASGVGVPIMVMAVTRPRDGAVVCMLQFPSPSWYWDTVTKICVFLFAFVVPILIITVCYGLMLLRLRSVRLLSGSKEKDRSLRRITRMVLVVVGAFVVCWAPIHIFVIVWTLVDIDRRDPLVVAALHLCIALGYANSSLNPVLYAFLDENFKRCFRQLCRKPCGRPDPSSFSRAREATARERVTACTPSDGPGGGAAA
T9 sequence (P35372 whole entry): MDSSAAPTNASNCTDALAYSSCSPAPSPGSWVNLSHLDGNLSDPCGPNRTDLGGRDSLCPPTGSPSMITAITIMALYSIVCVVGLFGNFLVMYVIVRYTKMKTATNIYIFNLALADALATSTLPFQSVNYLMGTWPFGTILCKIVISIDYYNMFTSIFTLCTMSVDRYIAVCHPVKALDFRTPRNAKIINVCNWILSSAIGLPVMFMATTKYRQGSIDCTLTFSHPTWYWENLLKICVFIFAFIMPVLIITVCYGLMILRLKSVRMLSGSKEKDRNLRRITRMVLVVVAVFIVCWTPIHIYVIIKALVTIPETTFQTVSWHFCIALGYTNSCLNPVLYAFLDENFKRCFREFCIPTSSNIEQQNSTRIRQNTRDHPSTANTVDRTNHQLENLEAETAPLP
T7 sequence (P41146 whole entry): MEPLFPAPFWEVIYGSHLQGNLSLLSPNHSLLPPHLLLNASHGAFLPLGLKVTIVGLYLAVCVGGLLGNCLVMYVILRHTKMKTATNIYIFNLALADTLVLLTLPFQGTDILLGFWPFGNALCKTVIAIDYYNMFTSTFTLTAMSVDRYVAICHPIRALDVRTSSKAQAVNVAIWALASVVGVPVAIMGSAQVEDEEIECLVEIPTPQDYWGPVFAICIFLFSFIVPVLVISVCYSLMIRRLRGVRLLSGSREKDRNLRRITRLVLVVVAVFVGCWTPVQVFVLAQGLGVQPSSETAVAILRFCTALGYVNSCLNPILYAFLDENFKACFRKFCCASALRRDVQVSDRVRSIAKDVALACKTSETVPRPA
T5 sequence (P41968 whole entry): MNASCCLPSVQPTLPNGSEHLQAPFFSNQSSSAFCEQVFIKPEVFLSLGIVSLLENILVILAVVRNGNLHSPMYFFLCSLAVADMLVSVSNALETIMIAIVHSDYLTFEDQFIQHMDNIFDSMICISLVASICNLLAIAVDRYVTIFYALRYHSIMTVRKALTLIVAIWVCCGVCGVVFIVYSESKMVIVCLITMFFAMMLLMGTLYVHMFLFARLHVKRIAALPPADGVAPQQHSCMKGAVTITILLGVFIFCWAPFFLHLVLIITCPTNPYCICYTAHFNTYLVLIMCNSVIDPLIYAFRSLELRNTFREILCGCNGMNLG
T8 sequence (P25103 whole entry): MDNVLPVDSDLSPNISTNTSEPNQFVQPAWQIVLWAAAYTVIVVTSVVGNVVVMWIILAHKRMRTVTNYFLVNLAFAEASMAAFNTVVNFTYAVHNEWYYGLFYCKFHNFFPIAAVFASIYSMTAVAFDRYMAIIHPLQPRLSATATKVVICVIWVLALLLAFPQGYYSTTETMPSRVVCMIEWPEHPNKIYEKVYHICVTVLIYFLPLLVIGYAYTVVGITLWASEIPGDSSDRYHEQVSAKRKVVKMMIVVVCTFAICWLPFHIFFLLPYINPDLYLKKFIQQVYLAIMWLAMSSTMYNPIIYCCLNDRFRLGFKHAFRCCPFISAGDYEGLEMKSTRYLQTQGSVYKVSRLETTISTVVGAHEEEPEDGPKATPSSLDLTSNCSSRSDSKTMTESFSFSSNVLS
T10 sequence (P41145 whole entry): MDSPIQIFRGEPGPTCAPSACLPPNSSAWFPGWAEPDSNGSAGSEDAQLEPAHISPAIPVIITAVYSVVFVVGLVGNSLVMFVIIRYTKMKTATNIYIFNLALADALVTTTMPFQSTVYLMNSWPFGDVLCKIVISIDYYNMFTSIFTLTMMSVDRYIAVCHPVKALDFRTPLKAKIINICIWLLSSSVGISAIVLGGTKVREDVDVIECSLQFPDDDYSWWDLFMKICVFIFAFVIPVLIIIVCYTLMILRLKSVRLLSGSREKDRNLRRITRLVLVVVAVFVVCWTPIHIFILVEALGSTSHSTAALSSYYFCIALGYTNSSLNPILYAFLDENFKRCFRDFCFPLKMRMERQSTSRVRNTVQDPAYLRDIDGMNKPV
T2 sequence (P33032 whole entry): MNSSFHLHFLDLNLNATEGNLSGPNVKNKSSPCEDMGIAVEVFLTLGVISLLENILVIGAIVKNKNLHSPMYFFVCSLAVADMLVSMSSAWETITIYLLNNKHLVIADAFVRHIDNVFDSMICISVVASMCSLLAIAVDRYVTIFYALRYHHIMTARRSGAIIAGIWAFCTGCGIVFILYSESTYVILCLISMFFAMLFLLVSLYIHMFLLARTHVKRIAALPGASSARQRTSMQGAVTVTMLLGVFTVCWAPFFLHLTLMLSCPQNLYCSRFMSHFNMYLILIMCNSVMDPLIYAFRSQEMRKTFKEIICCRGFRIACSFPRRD
T3 sequence (Q99705 whole entry): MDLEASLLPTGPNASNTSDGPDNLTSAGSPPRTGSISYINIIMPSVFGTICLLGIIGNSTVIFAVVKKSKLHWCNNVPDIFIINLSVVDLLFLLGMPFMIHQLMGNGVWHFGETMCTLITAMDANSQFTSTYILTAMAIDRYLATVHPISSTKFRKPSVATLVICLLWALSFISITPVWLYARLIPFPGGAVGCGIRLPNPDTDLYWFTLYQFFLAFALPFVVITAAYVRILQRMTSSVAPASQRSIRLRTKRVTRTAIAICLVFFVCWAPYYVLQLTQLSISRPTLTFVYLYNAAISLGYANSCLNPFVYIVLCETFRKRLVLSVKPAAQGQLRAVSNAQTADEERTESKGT
T6 sequence (P32245 whole entry): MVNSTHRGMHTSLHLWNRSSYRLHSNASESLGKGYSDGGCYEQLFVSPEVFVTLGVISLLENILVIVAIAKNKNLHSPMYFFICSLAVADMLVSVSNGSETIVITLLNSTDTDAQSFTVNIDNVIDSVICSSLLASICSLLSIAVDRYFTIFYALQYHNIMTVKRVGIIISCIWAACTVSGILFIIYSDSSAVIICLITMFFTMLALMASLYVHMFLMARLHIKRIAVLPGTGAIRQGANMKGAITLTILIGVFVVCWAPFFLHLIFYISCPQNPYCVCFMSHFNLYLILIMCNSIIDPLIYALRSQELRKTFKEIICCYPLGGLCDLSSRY

| Structure (SMILES) | A9 radioligand binding inhibition ([1]; human NPY-Y1 membranes) | A5 radioligand binding inhibition (Human melanocortin (MC5)) | A1 radioligand binding inhibition (Human δ-opioid (DOP)) | A3 radioligand binding inhibition (Human Melanocortin (MC3)) | A4 radioligand binding inhibition (Human Melanocortin (MC4)) | A10 radioligand binding inhibition (Human opioid (ORL1); human ORL1 membranes) | A8 radioligand binding inhibition (Human neurokinin (NK1)) | A7 radioligand binding inhibition (Human μ-opioid (MOP)) | A2 radioligand binding inhibition (Human κ-Opioid (KOP)) | A11 radioligand binding inhibition (Mouse urotensin (mUR2)) | A9 radioligand binding, percentage inhibition ([1]; [125I]-PYY) | A5 radioligand binding, percentage inhibition (Human melanocortin (MC5); [125I]-NDP-αMSH) | A6 radioligand binding, percentage inhibition [2] | A1 radioligand binding, percentage inhibition (Human δ-opioid (DOP); [3H]-Bremazocine) | A3 radioligand binding, percentage inhibition (Human Melanocortin (MC3); [125I]-NDP-αMSH) | A4 radioligand binding, percentage inhibition (Human Melanocortin (MC4); [125I]-NDP-αMSH) | A10 radioligand binding, percentage inhibition (Human opioid (ORL1); [125I]-Nociceptin) | A8 radioligand binding, percentage inhibition (Human neurokinin (NK1); [125I]-Substance P) | A7 radioligand binding, percentage inhibition (Human μ-opioid (MOP); [3H]-Naloxone) | A2 radioligand binding, percentage inhibition (Human κ-Opioid (KOP); [3H]-Diprenorphine) | other results |
| --- | --- | --- | --- | --- | --- | --- | --- | --- | --- | --- | --- | --- | --- | --- | --- | --- | --- | --- | --- | --- | --- |
| CO[C@H]1[C@H](O)[C@@H](COCc2ccc(-c3ccccc3)cc2)OC(OCc2ccccc2)[C@@H]1NC(=O)CNC(=N)N (stereo partly shown) [compound 82] | − (“−” indicates less than 50% inhibition at 10 μM) | − (“−” indicates less than 50% inhibition at 10 μM) | − (“−” indicates less than 50% inhibition at 10 μM) | − (“−” indicates less than 50% inhibition at 10 μM) | + (“+” indicates greater than 50% inhibition at 10 μM) | − (“−” indicates less than 50% inhibition at 10 μM) | + (“+” indicates greater than 50% inhibition at 10 μM) | − (“−” indicates less than 50% inhibition at 10 μM) | − (“−” indicates less than 50% inhibition at 10 μM) | − (“−” indicates less than 50% inhibition at 10 μM) |  |  |  |  |  |  |  |  |  |  | A6 radioligand binding inhibition [2]: − (“−” indicates less than 50% inhibition at 10 μM) |
| CO[C@H]1[C@H](O)[C@@H](COCc2ccc(Cl)cc2)OC(OCc2ccccc2)[C@@H]1NC(=O)CCCNC(=N)N (stereo partly shown) [compound 93] |  |  |  |  |  |  |  |  |  |  | − (“−” indicates less than 50% inhibition at 10 μM) | + (“+” indicates greater than 50% inhibition at 10 μM) | − (“−” indicates less than 50% inhibition at 10 μM) | − (“−” indicates less than 50% inhibition at 10 μM) | − (“−” indicates less than 50% inhibition at 10 μM) | − (“−” indicates less than 50% inhibition at 10 μM) | − (“−” indicates less than 50% inhibition at 10 μM) | + (“+” indicates greater than 50% inhibition at 10 μM) | + (“+” indicates greater than 50% inhibition at 10 μM) | − (“−” indicates less than 50% inhibition at 10 μM) | A11 radioligand binding, percentage inhibition (Mouse urotensin (mUR2); [125I]-Urotensin II): − (“−” indicates less than 50% inhibition at 10 μM) |
| CO[C@H]1[C@H](O)[C@@H](COCc2cccc(O)c2)OC(OCc2ccc(Cl)cc2)[C@@H]1NC(=O)CCCNC(=N)N (stereo partly shown) [compound 157] |  |  |  |  |  |  |  |  |  |  | − (“−” indicates less than 50% inhibition at 10 μM) | + (“+” indicates greater than 50% inhibition at 10 μM) | + (“+” indicates greater than 50% inhibition at 10 μM) | − (“−” indicates less than 50% inhibition at 10 μM) | − (“−” indicates less than 50% inhibition at 10 μM) | − (“−” indicates less than 50% inhibition at 10 μM) | − (“−” indicates less than 50% inhibition at 10 μM) | + (“+” indicates greater than 50% inhibition at 10 μM) | − (“−” indicates less than 50% inhibition at 10 μM) | − (“−” indicates less than 50% inhibition at 10 μM) | A11 radioligand binding, percentage inhibition (Mouse urotensin (mUR2); [125I]-Urotensin II): − (“−” indicates less than 50% inhibition at 10 μM) |
| N=C(N)NCC(=O)NC1C(OCc2ccc(-c3ccccc3)cc2)OC(COCc2ccc(Cl)cc2)C(O)C1OCc1ccc(-c2ccccc2)cc1 (stereo not shown) [compound 407] |  |  |  |  |  |  |  |  |  |  |  |  |  |  |  |  |  |  |  |  | A9: inhibition of radioligand binding ([1]; [125I]-PYY, human NPY-Y1 membranes): − (“−” indicates less than 50% inhibition at 10 μM); A5: inhibition of radioligand binding (Human melanocortin (MC5); [125I]-NDP-αMSH, human MC5 membranes): + (“+” indicates greater than 50% inhibition at 10 μM); A6: inhibition of radioligand binding ([2]; [125I]-S36057, human MCH1 membranes): + (“+” indicates greater than 50% inhibition at 10 μM); A1: inhibition of radioligand binding (Human δ-opioid (DOP); [3H]-Bremazocine, human DOP membranes): − (“−” indicates less than 50% inhibition at 10 μM); A3: inhibition of radioligand binding (Human Melanocortin (MC3); [125I]-NDP-αMSH, human MC3 membranes): + (“+” indicates greater than 50% inhibition at 10 μM); A4: inhibition of radioligand binding (Human Melanocortin (MC4); [125I]-NDP-αMSH, human MC4 membranes): + (“+” indicates greater than 50% inhibition at 10 μM); A10: inhibition of radioligand binding (Human opioid (ORL1); [125I]-Nociceptin, human ORL1 membranes): + (“+” indicates greater than 50% inhibition at 10 μM); A8: inhibition of radioligand binding (Human neurokinin (NK1); [125I]-Substance P, human NK1 membranes): + (“+” indicates greater than 50% inhibition at 10 μM); A7: inhibition of radioligand binding (Human μ-opioid (MOP); [3H]-Naloxone, human MOP membranes): − (“−” indicates less than 50% inhibition at 10 μM); A2: inhibition of radioligand binding (Human κ-Opioid (KOP); [3H]-Diprenorphine, human KOP membranes): − (“−” indicates less than 50% inhibition at 10 μM); A11: inhibition of radioligand binding (Mouse urotensin (mUR2); [125I]-Urotensin II, mouse mUR2 membranes): − (“−” indicates less than 50% inhibition at 10 μM) |
| COC[C@H]1OC(OCc2ccc(-c3ccccc3)cc2)[C@H](NC(=O)CCCNC(=N)N)[C@@H](OCc2ccccc2)[C@@H]1O (stereo partly shown) [compound 8] | − (“−” indicates less than 50% inhibition at 10 μM) | − (“−” indicates less than 50% inhibition at 10 μM) | − (“−” indicates less than 50% inhibition at 10 μM) | − (“−” indicates less than 50% inhibition at 10 μM) | − (“−” indicates less than 50% inhibition at 10 μM) | − (“−” indicates less than 50% inhibition at 10 μM) | + (“+” indicates greater than 50% inhibition at 10 μM) | − (“−” indicates less than 50% inhibition at 10 μM) | − (“−” indicates less than 50% inhibition at 10 μM) | − (“−” indicates less than 50% inhibition at 10 μM) |  |  |  |  |  |  |  |  |  |  | A6 radioligand binding inhibition ([2]; 10 µM): + (“+” indicates greater than 50% inhibition at 10 μM) |
